What was measured:
Assay type in all cases: in vivo
pepper powdery mildew [1] = assay: Pepper Powdery Mildew - Site 1, foliar sprays; settings: 14 days from third application; TG 0.3%, Triadimenol 75 cc/dunam, Azoxystronin 50 cc/dunam, Trifloxystrobin 20 cc/dunam, alone or combined with TG
Procedure: (§1) Various combinations of TTO (supplied as Timorex Gold®) and synthetic fungicidal compositions (supplied as commercial products to be diluted by the end user prior to use) were tested against tomato powdery mildew and pepper powdery mildew. Open field or greenhouse-grown plants of the crops studied were drip irrigated and fertilized according to known recommendations for each crop. Treatments were applied in a randomized complete block, with 5 replications per treatment. Plot size in each instance was of 5-10 m length, containing 6-20 plants, depending on the crop. Fungicidal treatment was applied using backpack sprayer equipped with a mist blower (STHIL 340) to spray a volume of 600 liter/ha, depending on the crop. From three to eight foliar sprays were applied at 7-14 day intervals, depending on the crop. Disease severity was evaluated by determining the leaf area covered with powdery mildew (disease severity) on each of 20 leaves randomly selected per each replicate. […] To analyze the results, an arc-sin transformation was performed on the raw data, and analysis of variance (ANOVA) using the SAS GLM procedure was applied to the transformed data. The Tukey-Kramer Test was applied to determine whether differences between treatments were significant. In the tables, “a”, “b” and “c”, refer to differences in statistical analysis that are familiar to users of the Tukey-Kramer test; “SF” is the “synergy” factor, calculated using the Abbott formula (SF=observed efficacy (Eobs)/expected efficacy (Eexp), where Eexp=α+β−[…], where α and β denote the levels of control afforded by materials α and β, respectively, alone; see e.g. Levy et al., EPPO Bull. 16, 651-657 (1986)).

tomato powdery mildew = assay: Tomato Powdery Mildew - Site 1, foliar sprays; settings: 12 days from fourth application; TG 0.3%, Azoxystrobin 50 cc/dunam, alone or combined
Procedure: as §1

pepper powdery mildew [2] = assay: Pepper Powdery Mildew - Site 2, foliar sprays; settings: 15 days from ninth application; TG 0.3%, Trifloxystrobin 20 gr/dunam, Myclobutanil 60 gr/dunam, alone or combined with TG
Procedure: Various combinations of TTO (supplied as Timorex Gold®) and synthetic fungicidal compositions (supplied as commercial products to be diluted by the end user prior to use) were tested against tomato powdery mildew and pepper powdery mildew. Open field or greenhouse-grown plants of the crops studied were drip irrigated and fertilized according to known recommendations for each crop. Treatments were applied in a randomized complete block, with 5 replications per treatment. Plot size in each instance was of 5-10 m length, containing 6-20 plants, depending on the crop. Fungicidal treatment was applied using backpack sprayer equipped with a mist blower (STHIL 340) to spray a volume of 600 liter/ha, depending on the crop. […] Disease severity was evaluated by determining the leaf area covered with powdery mildew (disease severity) on each of 20 leaves randomly selected per each replicate. […] To analyze the results, an arc-sin transformation was performed on the raw data, and analysis of variance (ANOVA) using the SAS GLM procedure was applied to the transformed data. The Tukey-Kramer Test was applied to determine whether differences between treatments were significant. In the tables, “a”, “b” and “c”, refer to differences in statistical analysis that are familiar to users of the Tukey-Kramer test; “SF” is the “synergy” factor, calculated using the Abbott formula (SF=observed efficacy (Eobs)/expected efficacy (Eexp), where Eexp=α+β−[…], where α and β denote the levels of control afforded by materials α and β, respectively, alone; see e.g. Levy et al., EPPO Bull. 16, 651-657 (1986)).

SMILES	Incidence: % leaves infected (pepper powdery mildew [1])	Incidence: Efficacy (%) (pepper powdery mildew [1])	Severity: % infected leaf area (pepper powdery mildew [1])	Severity: Efficacy (%) (pepper powdery mildew [1])	Incidence: % leaves infected (tomato powdery mildew)	Incidence: Efficacy (%) (tomato powdery mildew)	Severity: % infected leaf area (tomato powdery mildew)	Severity: Efficacy (%) (tomato powdery mildew)	Incidence: % leaves infected (pepper powdery mildew [2])	Incidence: Efficacy (%) (pepper powdery mildew [2])	Severity: % infected leaf area (pepper powdery mildew [2])	Severity: Efficacy (%) (pepper powdery mildew [2])
CO/C=C(/C(=O)OC)c1ccccc1Oc1cc(Oc2ccccc2C#N)ncn1 [Azoxystrobin]	22.5%	73.1%	2.9%	88.1%	45%	55.0%	5%	91.7%				
CON=C(C(=O)OC)c1ccccc1CON=C(C)c1cccc(C(F)(F)F)c1 [Trifloxystrobin]	25%	70.1%	1.9%	92.2%					2%	96.9%	0.1%	99.6%
CC(C)(C)C(O)C(Oc1ccc(Cl)cc1)n1cncn1 (stereo not drawn) [Triadimenol]	48.7%	41.8%	8.4%	65.6%								
CCCCC(C#N)(Cn1cncn1)c1ccc(Cl)cc1 (stereo not drawn) [Myclobutanil]									2%	96.9%	0%	100.0%
